Test results from ChEMBL document CHEMBL6115007, “Synthesis and in vitro and in vivo evaluation of novel bivalent quinolines as antitumor agents via targeting autophagy in cervical cancer” (Eur J Med Chem, 2025).
pIC50: −log10 of the molar value. Calls of active or inactive are those of the source. No cut-off for these calls is given here.

How the values were obtained:
[1] = test system: Ca-Ski; assay: Effect on SLC7A11 protein expression level in human Ca Ski cells at 0.5 uM incubated for 24 hrs by Western blot analysis; assay type: functional, cell-based
[2] = test system: Ca-Ski; assay: Induction of autophagy in human Ca Ski cells transfected with mRFP-GFP-LC3 plasmid assessed as stable RFP fluorescence at 0.3 to 0.6 uM incubated for 24 hrs by DAPI staining based fluorescence confocal microscopic analysis; assay type: functional, cell-based; conditions: dose 0.3-0.6 µM
[3] = test system: Ca-Ski; assay: Antiproliferative activity against human Ca Ski cells assessed as inhibition of cell growth at 0.4 to 1.6 uM by CCK8 assay; assay type: functional, cell-based; conditions: dose 0.4-1.6 µM, time 6.0 day
[4] = test system: HeLa; assay: Induction of apoptosis in human HeLa cells assessed as early apoptotic cells at 0.6 uM incubated for 24 hrs by Annexin V-FITC/PI staining based flow cytometric analysis (reference value: 0.97 %); assay type: functional
[5] = test system: HeLa; assay: Effect on PARP expression level in p53 deficient human HeLa cells at 0.6 to 1.2 uM incubated for 24 hrs by Western blot analysis; assay type: functional, cell-based; conditions: dose 0.6-1.2 µM
[6] = test system: HeLa; assay: Effect on ATG16L1 protein level in human HeLa cells at 0.6 to 1.2 uM incubated for 24 hrs by Western blot analysis; assay type: functional, cell-based; conditions: dose 0.6-1.2 µM
[7] = test system: Ca-Ski; assay: Antiproliferative activity against ATG7 deficient human Ca Ski cells assessed as inhibition of cell viability incubated for 24 hrs by CCK8 assay; assay type: functional, cell-based
[8] = test system: Ca-Ski; assay: Induction of apoptosis in human Ca Ski cells assessed as early apoptotic cells at 0.5 uM preincubated with Z-VAD-FMK for 1 hrs followed by compound addition and measured after 24 hrs by Annexin V-FITC/PI staining based flow cytometric analysis (reference value: 2.91 %); assay type: functional
[9] = test system: Ca-Ski; assay: Antiproliferative activity against Bax deficient human Ca Ski cells assessed as inhibition of cell viability incubated for 24 hrs by CCK8 assay; assay type: functional, cell-based
[10] = test system: HeLa; assay: Induction of apoptosis in human HeLa cells assessed as late apoptotic cells at 1.2 uM preincubated with Z-VAD-FMK for 1 hrs followed by compound addition and measured after 24 hrs by Annexin V-FITC/PI staining based flow cytometric analysis (reference value: 1.02 %); assay type: functional
[11] = Toxicity in female BALB/c mouse xenografted with human HeLa cells assessed as effect on BUN level at 4 to 8 mg/kg administered every four days and measured after 26 days; assay type: organism-based; conditions: in vivo, 624 h, dose 4-8 mg/kg, time 26 day
[12] = test system: HeLa; assay: Induction of autophagy in human HeLa cells assessed as increase in LC3-I conversion to LC3-II at 0.3 to 1.2 microM incubated for 24 hrs by Western blot analysis; assay type: functional, cell-based; conditions: dose 0.3-1.2 µM
[13] = Toxicity in female BALB/c mouse xenografted with human HeLa cells assessed as effect on ALT level at 4 to 8 mg/kg administered every four days and measured after 26 days; assay type: organism-based; conditions: in vivo, 624 h, dose 4-8 mg/kg, time 26 day
[14] = test system: HeLa; assay: Upregulation of autophagy pathway related gene expression in human HeLa cells at 1.2 uM incubated for 24 hrs by heat-map analysis; assay type: functional, cell-based
[15] = test system: HeLa; assay: Effect on cleaved PARP expression level in human HeLa cells at 0.3 to 1.2 uM incubated for 24 hrs by Western blot analysis; assay type: functional, cell-based; conditions: dose 0.3-1.2 µM
[16] = test system: C-33-A; assay: Induction of morphological changes in human C-33-A cells assessed as increase in appearance of round cells at 0.3 to 1.2 uM by microphotographic analysis; assay type: functional, cell-based; conditions: dose 0.3-1.2 µM
[17] = test system: Ca-Ski; assay: Induction of apoptosis in human Ca Ski cells assessed as viable cells at 1 uM preincubated with Z-VAD-FMK for 1 hrs followed by compound addition and measured after 24 hrs by Annexin V-FITC/PI staining based flow cytometric analysis (reference value: 90.2 %); assay type: functional; conditions: read-out: Activity
[18] = test system: HeLa; assay: Effect on apoptosis pathway related gene expression in human HeLa cells at 1.2 uM incubated for 24 hrs by GSVA enrichment analysis; assay type: functional, cell-based
[19] = test system: HeLa; assay: Antiproliferative activity against human HeLa cells assessed as inhibition of cell viability incubated for 24 hrs by CCK8 assay; assay type: functional, cell-based
[20] = test system: HeLa; assay: Effect on cleaved caspase 3 expression level in p53 deficient human HeLa cells at 0.6 to 1.2 uM incubated for 24 hrs by Western blot analysis; assay type: functional, cell-based; conditions: dose 0.6-1.2 µM
[21] = test system: Ca-Ski; assay: Induction of autophagy in ATG7 deficient human Ca Ski cells assessed as increase in LC3-II expression at 0.5 to 1 uM incubated for 24 hrs by Western blot analysis; assay type: functional, cell-based; conditions: dose 0.5-1 µM
[22] = test system: SiHa; assay: Antiproliferative activity against human SiHa cells assessed as inhibition of cell viability incubated for 24 hrs by CCK8 assay; assay type: functional, cell-based
[23] = test system: HeLa; assay: Induction of apoptosis in human HeLa cells assessed as early apoptotic cells at 1.2 uM preincubated with Z-VAD-FMK for 1 hrs followed by compound addition and measured after 24 hrs by Annexin V-FITC/PI staining based flow cytometric analysis (reference value: 0.96 %); assay type: functional
[24] = test system: HeLa; assay: Induction of morphological changes in human HeLa cells assessed as decrease in cell adherence to culture dish at 0.6 to 2.4 uM by microphotographic analysis; assay type: functional, cell-based; conditions: dose 0.6-2.4 µM
[25] = test system: HeLa; assay: Antiproliferative activity against p53 deficient human HeLa cells assessed as inhibition of cell viability incubated for 24 hrs by CCK8 assay; assay type: functional, cell-based
[26] = test system: Ca-Ski; assay: Induction of apoptosis in human Ca Ski cells assessed as viable cells at 0.5 uM preincubated with Z-VAD-FMK for 1 hrs followed by compound addition and measured after 24 hrs by Annexin V-FITC/PI staining based flow cytometric analysis (reference value: 90.2 %); assay type: functional; conditions: read-out: Activity
[27] = test system: Ca-Ski; assay: Induction of apoptosis in human Ca Ski cells assessed as necrotic cells at 1 uM incubated for 24 hrs by Annexin V-FITC/PI staining based flow cytometric analysis (reference value: 3.15 %); assay type: functional
[28] = test system: HeLa; assay: Induction of apoptosis in human HeLa cells assessed as late apoptotic cells at 0.6 uM preincubated with Z-VAD-FMK for 1 hrs followed by compound addition and measured after 24 hrs by Annexin V-FITC/PI staining based flow cytometric analysis (reference value: 1.02 %); assay type: functional
[29] = test system: Ca-Ski; assay: Antiproliferative activity against p53 deficient human Ca Ski cells assessed as inhibition of cell viability incubated for 24 hrs by CCK8 assay; assay type: functional, cell-based
[30] = test system: HeLa; assay: Effect on caspase 3 expression level in human HeLa cells at 0.3 to 1.2 uM incubated for 24 hrs by Western blot analysis; assay type: functional, cell-based; conditions: dose 0.3-1.2 µM
[31] = test system: HeLa; assay: Induction of autophagy pathway in human HeLa cells at 1.2 uM incubated for 24 hrs by GSEA analysis; assay type: functional, cell-based
[32] = test system: Ca-Ski; assay: Induction of apoptosis in human Ca Ski cells assessed as late apoptotic cells at 1 uM preincubated with Z-VAD-FMK for 1 hrs followed by compound addition and measured after 24 hrs by Annexin V-FITC/PI staining based flow cytometric analysis (reference value: 5.30 %); assay type: functional
[33] = test system: HeLa; assay: Effect on cleaved caspase 3 expression level in Bax deficient human HeLa cells at 0.6 to 1.2 uM incubated for 24 hrs by Western blot analysis; assay type: functional, cell-based; conditions: dose 0.6-1.2 µM
[34] = test system: HeLa; assay: Induction of apoptosis in human HeLa cells assessed as viable cells at 0.6 uM preincubated with Z-VAD-FMK for 1 hrs followed by compound addition and measured after 24 hrs by Annexin V-FITC/PI staining based flow cytometric analysis (reference value: 95.8 %); assay type: functional; conditions: read-out: Activity

## COc1cccc(Nc2ccnc3cc(OCCCCCOc4ccc5c(Nc6cccc(OC)c6)ccnc5c4)ccc23)c1
[1]
  Activity: Moderate_effect
[2]
  Activity: Active
[3]
  Activity: Time-dependent-effect
[4]
  Activity: 0.8%
[5]
  Activity: inactive
[6]
  Activity: inactive
[7]
  pIC50: 5.54
[8]
  Activity: 7.65%
[9]
  pIC50: 6.00
[10]
  Activity: 3.71%
[11]
  Activity: Non-toxic
[12]
  Activity: Active
[13]
  Activity: Non-toxic
[14]
  Activity: Active
[15]
  Activity: inactive
[16]
  Activity: Active
[17]
  viability at 1 µM: 86.1%
[18]
  Activity: Minimal_effect
[19]
  Activity: Dose-dependent-effect
  pIC50: 6.19
[20]
  Activity: inactive
[21]
  Activity: inactive
[22]
  Activity: Dose-dependent-effect
  pIC50: 5.84
[23]
  Activity: 1.22%
[24]
  Activity: Active
[25]
  pIC50: 5.96
[26]
  viability at 0.5 µM: 73.7%
[27]
  Activity: 2.98%
[28]
  Activity: 2.8%
[29]
  pIC50: 6.06
[30]
  Activity: inactive
[31]
  Activity: Active
[32]
  Activity: 6.59%
[33]
  Activity: inactive
[34]
  viability at 0.6 µM: 94.9%
